Values after ≈ are worked out from the molar mass of the structure shown. Values joined by “and” are separate entries in the source; they are usually repeats but may differ in a detail not shown here. Identical values can stand only once. Where a SMILES comes first, the peptide text is derived from it. Bridges are numbered along the chain shown (N, C = ends). [ ]: non-standard residue; d: D form. The star is where a group is joined. ξ: configuration not given here. Decanoyl(3ξ-OH) = CCCCCCCC(O)CC(=O)*; Dab = NCC[CH](N)C(=O)O; Dhb = C/C=C(\N)C(=O)O
Legend:
Aeromonas caviae = assay: MIC, microbroth dilution method; type: cell-based; settings: 48 h
Experimental: (§1) The MIC of the compounds for the organisms was determined by the microbroth dilution method, described hereafter. The microorganisms were prepared as described above and resuspended in their optimal growth media (Table 1) to ˜10^5 CFU/mL containing SP 25A at 2, 3, 4, 5, 6, 7, 8, 16, 32 and 50 μg/mL in a total volume of 550 μL. RL concentrations of 2, 3, 4, 5, 6, 7, 8, 16, 32 and 60 μg/mL in a total volume of 550 μL were tested in a 48-well plate (Corning, N.Y.). The plates were incubated at optimal growth conditions for the respective organism and monitored for an increase in OD600 after 48 h by a Perkin-Elmer (HTS 7000) plate reader (Downers Grove, Ill.). […] Negative controls (no inhibition of growth) were included using saline in the assay for each compound. The lowest concentration at which there was no increase in OD over 48 h was reported as the MIC. Each MIC was determined in replicate with three separate tests per replication. The results of the three tests were averaged for each replicate.

Bacillus cereus = assay: MIC, microbroth dilution method; type: cell-based; settings: 48 h
Experimental: as §1

Bacillus megaterium = assay: MIC, microbroth dilution method; type: cell-based; settings: 48 h
Experimental: as §1

Bacillus subtilis = assay: MIC, microbroth dilution method; type: cell-based; settings: 48 h
Experimental: as §1

Citrobacter fruendii = assay: MIC, microbroth dilution method; type: cell-based; settings: 48 h
Experimental: as §1

Clostridium sporogenes = assay: MIC, microbroth dilution method; type: cell-based; settings: 48 h
Experimental: as §1

Enterobacter aerogenes = assay: MIC, microbroth dilution method; type: cell-based; settings: 48 h
Experimental: as §1

Erwinia herbicola = assay: MIC, microbroth dilution method; type: cell-based; settings: 48 h
Experimental: as §1

Eschereschia coli K12 = assay: MIC, microbroth dilution method; type: cell-based; settings: 48 h
Experimental: as §1

Flavobacterium devorans = assay: MIC, microbroth dilution method; type: cell-based; settings: 48 h
Experimental: as §1

[1] = system: Klebsiella pneumoniae subsp. Pneumoniae; assay: MIC, microbroth dilution method; type: cell-based; settings: 48 h
Experimental: as §1

[2] = system: Lactobacillus acidophilus; assay: MIC, microbroth dilution method; type: cell-based; settings: 48 h
Experimental: as §1

Lactobacillus plantarum = assay: MIC, microbroth dilution method; type: cell-based; settings: 48 h
Experimental: as §1

[3] = system: Lactococcus lactis subsp. Lactis; assay: MIC, microbroth dilution method; type: cell-based; settings: 48 h
Experimental: as §1

Listeria innocua = assay: MIC, microbroth dilution method; type: cell-based; settings: 48 h
Experimental: as §1

Listeria monocytogenes = assay: MIC, microbroth dilution method; type: cell-based; settings: 48 h
Experimental: as §1

Micrococcus luteus = assay: MIC, microbroth dilution method; type: cell-based; settings: 48 h
Experimental: as §1

Salmonella enteridis = assay: MIC, microbroth dilution method; type: cell-based; settings: 48 h
Experimental: as §1

Salmonella typhimurium = assay: MIC, microbroth dilution method; type: cell-based; settings: 48 h
Experimental: as §1

[4] = system: Streptococcus agalacticae; assay: MIC, microbroth dilution method; type: cell-based; settings: 48 h
Experimental: as §1

Streptococcus mutans = assay: MIC, microbroth dilution method; type: cell-based; settings: 48 h
Experimental: as §1

Streptococcus suis = assay: MIC, microbroth dilution method; type: cell-based; settings: 48 h
Experimental: as §1

Enterococcus faecalis = type: cell-based; settings: Enterococcus faecalis (multiple drug resistant); 48 h
Experimental: (§2) In order to determine the antimicrobial efficacy of RLs and SPs they were tested against several bacterial strains, some with multiple drug resistance. The multiple drug resistant bacterial strains used were E. faecalis and S. aureus. […] A combination of RLs and SPs were tested against L. monocytogenes.
as §1

[5] = system: Staphylococcus aureus subsp. aureus; type: cell-based; settings: Staphylococcus aureus subsp. aureus (multiple drug resistant); 48 h
Experimental: as §2, §1

[6] = system: Listeria monocytogenes EGDe; assay: Membrane permeabilization by PI uptake during treatment; type: cell-based
Experimental: Membrane permeabilization was determined through following the change in fluorescence of a dye, propidium iodide (“PI”). PI is unable to pass through the cell membrane unless the membrane has been physically compromised. Once inside the cell, the intercalation of the PI with the DNA of the cell causes the fluorescent properties of the dye to change. This change in fluorescence can be measured. Therefore, an uptake of PI indicates an increase in membrane permeabilization.
FIGS. 6A includes a graph that illustrates the amount of membrane permeabilization in response to SP 25A and RLs. Membrane permeabilization was determined by the increase in fluorescence (RFU) with PI uptake during treatment of L. monocytogenes with SP 25A and RLs over a period of 120 min.
Listeria monocytogenes EGDe was thawed and subcultured twice at 37° C. in brain heart infusion broth (BHI) (DIFCO, Franklin Lanes, N.J.). […]
Total RNA was extracted from a 1.8 mL culture immediately before treating the cells with SP 25A and RLs (T0), after 30 min (T30), and at 120 min (T120) of exposure at 37° C. Simultaneously, the cell density was measured at OD600. Membrane permeabilization was determined by measuring the PI uptake. […] Each well contained five probes for each open reading frame in the entire genome.

RBC = settings: reported by Dalla Serra et al. 1999; cited from earlier work

In the case of `C/C=C(\NC(=O)C(C)NC(=O)C(C)NC(=O)C(CC(C)C)NC(=O)C(NC(=O)C(C)NC(=O)C(C)NC(=O)C(NC(=O)C1CCCN1C(=O)/C(=C/C)NC(=O)CC(O)CCCCCCC)C(C)C)C(C)C)C(=O)NC(C(=O)N/C(=C\C)C(=O)NC(C)C(=O)NC(C(=O)NC(C)C(=O)NC(C)C(=O)N/C(=C\C)C(=O)NC1C(=O)NC(CO)C(=O)NC(C)C(=O)NC(C(C)C)C(=O)NC(C)C(=O)NC(CCN)C(=O)NC(CCN)C(=O)NC(Cc2ccc(O)cc2)C(=O)OC1C)C(C)C)C(C)C` (stereo not drawn) [SP 25A, syringopeptin 25A] ({Decanoyl(3ξ-OH)}-[Dhb]PVAAVLAA[Dhb]V[Dhb]AVAA[Dhb]TSAVA[Dab][Dab]Y; ester 18-C; configuration not given here), the MIC (Aeromonas caviae) is reported as over 50 mg/L, the MIC (Bacillus cereus) is reported as 4 mg/L (≈ 1.67 µM) and the MIC (Bacillus megaterium) is reported as 3 mg/L (≈ 1.25 µM). For the same molecule, the MIC (Bacillus subtilis) was 4 mg/L (≈ 1.67 µM), the MIC (Citrobacter fruendii) was over 50 mg/L and the MIC (Clostridium sporogenes) was 4 mg/L (≈ 1.67 µM). The MIC (Enterobacter aerogenes) was over 50 mg/L, the MIC (Erwinia herbicola) was over 50 mg/L and the MIC (Eschereschia coli K12) was over 50 mg/L. For the same molecule, the MIC (Flavobacterium devorans) was 4 mg/L (≈ 1.67 µM), the MIC [1] was over 50 mg/L and the MIC [2] was 8 mg/L (≈ 3.33 µM). For the same molecule, the MIC (Lactobacillus plantarum) was 16 mg/L (≈ 6.67 µM), the MIC [3] was 4 mg/L (≈ 1.67 µM) and the MIC (Listeria innocua) was 3 mg/L (≈ 1.25 µM). For the same molecule, the MIC (Listeria monocytogenes) was 3 mg/L (≈ 1.25 µM), the MIC (Micrococcus luteus) was 4 mg/L (≈ 1.67 µM) and the MIC (Salmonella enteridis) was over 50 mg/L. For the same molecule, the MIC (Salmonella typhimurium) was over 50 mg/L, the MIC [4] was 8 mg/L (≈ 3.33 µM) and the MIC (Streptococcus mutans) was 4 mg/L (≈ 1.67 µM). The MIC (Streptococcus suis) was 4 mg/L (≈ 1.67 µM), the MIC (Enterococcus faecalis) was 8 mg/L and the MIC [5] was 8 mg/L. For the same molecule, the “increase in membrane permeabilization (PI uptake)” value ([6]; L. monocytogenes EGDe, 3 μg/mL SP 25A, after 30 min) was ~2% and 2.6%, the “PI uptake (membrane permeabilization)” value ([6]; L. monocytogenes, sub-MIC doses, over 120 min) was “did not” and the “concentration to achieve 50% RBC hemolysis” value (RBC) was 8.88 µg/mL.
